Results as given in patent publication US12077503B2, “Substituted cyclic amides and their use as herbicides” (FMC CORPORATION, priority 2015, dated 2024).

What was measured:
Experiment in all cases: Test E preemergence
Type in all cases: in vivo
Details in all cases: scale 0 to 100
[1] = system: ryegrass, Italian (Italian ryegrass, Lolium multiflorum)
Excerpt: (§1) Seeds of plant species selected from corn (Zea mays), soybean (Glycine max), velvetleaf (Abutilon theophrasti), lambsquarters (Chenopodium album), poinsettia, wild (wild poinsettia, Euphorbia heterophylla), pigweed, palmer (palmer pigweed, Amaranthus palmeri), waterhemp (common waterhemp, Amaranthus rudis), surinam grass (Brachiaria decumbens), crabgrass, large (large crabgrass, Digitaria sangumnalis), crabgrass, Brazil (Brazilian crabgrass, Digitaria horizontalis), Panicum, fall (fall Panicum, Panicum dichotomiflorum), foxtail, giant (giant foxtail, Setaria faberii), foxtail, green (green foxtail, Setaria viridis), goosegrass (Eleusine indica), johnsongrass (Sorghum halepense), ragweed (common ragweed, Ambrosia elatior), barnyardgrass (Echinochloa crus-galli), sandbur (southern sandbur, Cenchrus echinatus), arrowleaf Sida (Sida rhombifolia), ryegrass, Italian (Italian ryegrass, Lolium multiflorum), dayflower, VA (Virginia dayflower, Commelina virginica), field bindweed (Convolvulus arvensis), morningglory (Ipomoea coccinea), nightshade (eastern black nightshade, Solanum ptycanthum), Kochia (Kochia scoparia), nutsedge, yellow (yellow nutsedge, Cyperus esculentus), horseweed (Conyza canadensis), and beggarticks (hairy beggarticks, Bidens pilosa), were planted into a silt loam soil and treated preemergence with test chemicals formulated in a non-phytotoxic solvent mixture which included a surfactant.
(§2) At the same time, plants selected from these crop and weed species were planted in pots containing Sunshine Redi-Earth planting medium comprising spaghnum peat moss, vermiculite, starter nutrients and dolomitic limestone and treated with postemergence applications of a test chemical formulated in the same manner. Plants ranged in height from 2 to 18 cm (1- to 4-leaf stage) for postemergence treatments. Treated plants and controls were maintained in a greenhouse for 14 to 21 d, after which time all species were compared to controls and visually evaluated. Plant response ratings, summarized in Table E, are based on a scale of 0 to 100 where 0 is no effect and 100 is complete control. A dash (-) response means no test result.

[2] = system: goosegrass (Eleusine indica)
Excerpt: as §1, §2

[3] = system: beggarticks (hairy beggarticks, Bidens pilosa)
Excerpt: as §1, §2

soybean (Glycine max) = system: soybean (Glycine max)
Excerpt: as §1, §2

[4] = system: lambsquarters (Chenopodium album)
Excerpt: as §1, §2

[5] = system: crabgrass, Brazil (Brazilian crabgrass, Digitaria horizontalis)
Excerpt: as §1, §2

[6] = system: arrowleaf Sida (Sida rhombifolia)
Excerpt: as §1, §2

[7] = system: horseweed (Conyza canadensis)
Excerpt: as §1, §2

[8] = system: waterhemp (common waterhemp, Amaranthus rudis)
Excerpt: as §1, §2

Kochia (Kochia scoparia) = system: Kochia (Kochia scoparia)
Excerpt: as §1, §2

corn (Zea mays) = system: corn (Zea mays)
Excerpt: as §1, §2

[9] = system: surinam grass (Brachiaria decumbens)
Excerpt: as §1, §2

[10] = system: poinsettia, wild (wild poinsettia, Euphorbia heterophylla)
Excerpt: as §1, §2

[11] = system: nutsedge, yellow (yellow nutsedge, Cyperus esculentus)
Excerpt: as §1, §2

[12] = system: morningglory (Ipomoea coccinea)
Excerpt: as §1, §2

[13] = system: sandbur (southern sandbur, Cenchrus echinatus)
Excerpt: as §1, §2

[14] = system: pigweed, palmer (palmer pigweed, Amaranthus palmeri)
Excerpt: as §1, §2

[15] = system: field bindweed (Convolvulus arvensis)
Excerpt: as §1, §2

[16] = system: velvetleaf (Abutilon theophrasti)
Excerpt: as §1, §2

[17] = system: barnyardgrass (Echinochloa crus-galli)
Excerpt: as §1, §2

[18] = system: ragweed (common ragweed, Ambrosia elatior)
Excerpt: as §1, §2

CN1CC(c2cccc(OC(F)(F)C(F)F)c2)C(C(=O)Nc2cccc(F)c2F)C1=O (stereo not drawn) [Compound 392]
Plant response rating: Ryegrass, Italian ([1]; 31 g ai/ha): 0 | Plant response rating: Ryegrass, Italian ([1]; 62 g ai/ha): 10 | Plant response rating: Ryegrass, Italian ([1]; 125 g ai/ha): 60 | Plant response rating: Ryegrass, Italian ([1]; 250 g ai/ha): 70 | Plant response rating: Goosegrass ([2]; 31 g ai/ha): 85 | Plant response rating: Goosegrass ([2]; 62 g ai/ha): 90 | Plant response rating: Goosegrass ([2]; 125 g ai/ha): 95 | Plant response rating: Goosegrass ([2]; 250 g ai/ha): 95 | Plant response rating: Beggarticks ([3]; 31 g ai/ha): 0 | Plant response rating: Beggarticks ([3]; 62 g ai/ha): 0 | Plant response rating: Beggarticks ([3]; 125 g ai/ha): 0 | Plant response rating: Beggarticks ([3]; 250 g ai/ha): 0 | Plant response rating: Soybean (soybean (Glycine max); 31 g ai/ha): 0 | Plant response rating: Soybean (soybean (Glycine max); 62 g ai/ha): 0 | Plant response rating: Soybean (soybean (Glycine max); 125 g ai/ha): 20 | Plant response rating: Soybean (soybean (Glycine max); 250 g ai/ha): 25 | Plant response rating: Lambsquarters ([4]; 31 g ai/ha): 75 | Plant response rating: Lambsquarters ([4]; 62 g ai/ha): 75 | Plant response rating: Lambsquarters ([4]; 125 g ai/ha): 98 | Plant response rating: Lambsquarters ([4]; 250 g ai/ha): 100 | Plant response rating: Crabgrass, Brazil ([5]; 31 g ai/ha): 98 | Plant response rating: Crabgrass, Brazil ([5]; 62 g ai/ha): 98 | Plant response rating: Crabgrass, Brazil ([5]; 125 g ai/ha): 98 | Plant response rating: Crabgrass, Brazil ([5]; 250 g ai/ha): 98 | Plant response rating: Arrowleaf Sida ([6]; 31 g ai/ha): 0 | Plant response rating: Arrowleaf Sida ([6]; 62 g ai/ha): 15 | Plant response rating: Arrowleaf Sida ([6]; 125 g ai/ha): 65 | Plant response rating: Arrowleaf Sida ([6]; 250 g ai/ha): 80 | Plant response rating: Horseweed ([7]; 31 g ai/ha): 0 | Plant response rating: Horseweed ([7]; 62 g ai/ha): 0 | Plant response rating: Horseweed ([7]; 125 g ai/ha): 98 | Plant response rating: Horseweed ([7]; 250 g ai/ha): 100 | Plant response rating: Waterhemp ([8]; 31 g ai/ha): 35 | Plant response rating: Waterhemp ([8]; 62 g ai/ha): 80 | Plant response rating: Waterhemp ([8]; 125 g ai/ha): 70 | Plant response rating: Waterhemp ([8]; 250 g ai/ha): 90 | Plant response rating: Kochia (Kochia (Kochia scoparia); 31 g ai/ha): 85 | Plant response rating: Kochia (Kochia (Kochia scoparia); 62 g ai/ha): 90 | Plant response rating: Kochia (Kochia (Kochia scoparia); 125 g ai/ha): 80 | Plant response rating: Kochia (Kochia (Kochia scoparia); 250 g ai/ha): 90 | Plant response rating: Corn (corn (Zea mays); 31 g ai/ha): 0 | Plant response rating: Corn (corn (Zea mays); 62 g ai/ha): 15 | Plant response rating: Corn (corn (Zea mays); 125 g ai/ha): 50 | Plant response rating: Corn (corn (Zea mays); 250 g ai/ha): 70 | Plant response rating: Surinam Grass ([9]; 31 g ai/ha): 0 | Plant response rating: Surinam Grass ([9]; 62 g ai/ha): 0 | Plant response rating: Surinam Grass ([9]; 125 g ai/ha): 15 | Plant response rating: Surinam Grass ([9]; 250 g ai/ha): 30 | Plant response rating: Poinsettia, Wild ([10]; 31 g ai/ha): 0 | Plant response rating: Poinsettia, Wild ([10]; 62 g ai/ha): 0 | Plant response rating: Poinsettia, Wild ([10]; 125 g ai/ha): 35 | Plant response rating: Poinsettia, Wild ([10]; 250 g ai/ha): 20 | Plant response rating: Nutsedge, Yellow ([11]; 31 g ai/ha): 0 | Plant response rating: Nutsedge, Yellow ([11]; 62 g ai/ha): 0 | Plant response rating: Nutsedge, Yellow ([11]; 125 g ai/ha): 0 | Plant response rating: Nutsedge, Yellow ([11]; 250 g ai/ha): 0 | Plant response rating: Morningglory ([12]; 31 g ai/ha): 0 | Plant response rating: Morningglory ([12]; 62 g ai/ha): 0 | Plant response rating: Morningglory ([12]; 125 g ai/ha): 0 | Plant response rating: Morningglory ([12]; 250 g ai/ha): 0 | Plant response rating: Sandbur ([13]; 31 g ai/ha): 0 | Plant response rating: Sandbur ([13]; 62 g ai/ha): 60 | Plant response rating: Sandbur ([13]; 125 g ai/ha): 60 | Plant response rating: Sandbur ([13]; 250 g ai/ha): 90 | Plant response rating: Pigweed, Palmer ([14]; 31 g ai/ha): 0 | Plant response rating: Pigweed, Palmer ([14]; 62 g ai/ha): 20 | Plant response rating: Pigweed, Palmer ([14]; 125 g ai/ha): 35 | Plant response rating: Pigweed, Palmer ([14]; 250 g ai/ha): 90 | Plant response rating: Field Bindweed ([15]; 31 g ai/ha): 0 | Plant response rating: Field Bindweed ([15]; 62 g ai/ha): 0 | Plant response rating: Field Bindweed ([15]; 125 g ai/ha): 35 | Plant response rating: Field Bindweed ([15]; 250 g ai/ha): 70 | Plant response rating: Velvetleaf ([16]; 31 g ai/ha): 0 | Plant response rating: Velvetleaf ([16]; 62 g ai/ha): 20 | Plant response rating: Velvetleaf ([16]; 125 g ai/ha): 50 | Plant response rating: Velvetleaf ([16]; 250 g ai/ha): 75 | Plant response rating: Barnyardgrass ([17]; 31 g ai/ha): 85 | Plant response rating: Barnyardgrass ([17]; 62 g ai/ha): 70 | Plant response rating: Barnyardgrass ([17]; 125 g ai/ha): 90 | Plant response rating: Barnyardgrass ([17]; 250 g ai/ha): 95 | Plant response rating: Ragweed ([18]; 31 g ai/ha): 0 | Plant response rating: Ragweed ([18]; 62 g ai/ha): 0 | Plant response rating: Ragweed ([18]; 125 g ai/ha): 0 | Plant response rating: Ragweed ([18]; 250 g ai/ha): 65
